Counter-ions that a name gives are not always drawn.
Compound	melting point
COCC[C@H]1CN(C2=Nc3ccccc3Sc3sc(C(C)C)cc32)CCN1.Cl.Cl	149 to 152 °C (dec.)
CCc1cc2c(s1)Sc1ccccc1N=C2N1CCN(C)[C@@H](CCOC)C1.Cl.Cl	181 to 187 °C
COCC[C@H]1CN(C2=Nc3ccccc3Sc3sc(C(C)C)cc32)CCN1C.Cl.Cl	143 to 147 °C (dec.)
CN1CCN(C2=Nc3ccccc3Sc3ccccc32)C[C@@H]1CCc1ccccc1	44 to 54 °C
c1ccc(C[C@@H]2CN(C3=Nc4ccccc4Sc4ccccc43)CCN2)cc1	56 to 69 °C
CN1CCN(C2=Nc3ccccc3Sc3ccccc32)C[C@H]1Cc1ccccc1	46 to 63 °C
c1ccc(CC[C@H]2CN(C3=Nc4ccccc4Sc4ccccc43)CCN2)cc1	48 to 59 °C
c1ccc(C[C@H]2CN(C3=Nc4ccccc4Sc4ccccc43)CCN2)cc1	54 to 71 °C
CN1CCN(C2=Nc3ccccc3Sc3ccccc32)C[C@@H]1Cc1ccccc1	48 to 64 °C
CCc1nc2c(s1)Sc1ccccc1N=C2N1CCN(C)[C@@H](CCc2ccc(OC)cc2)C1.Cl	129 to 130 °C
CCc1nc2c(s1)Sc1ccccc1N=C2N1CCN(C)[C@@H](CCc2cccc(F)c2)C1.Cl	133 to 135 °C
CC(=O)c1nc2c(s1)Sc1ccccc1N=C2N1CCN(C)[C@@H](CCc2cccc(F)c2)C1.Cl.Cl	130 to 132 °C
COCC[C@H]1CN(C2=Nc3ccccc3Sc3sc(C(C)=O)nc32)CCN1C.Cl.Cl	138 to 140 °C
COCC[C@H]1CN(C2=Nc3ccccc3Sc3scnc32)CCN1 (as salt: hydrochloride)	184 to 186 °C
COCC[C@H]1CN(C2=Nc3ccccc3Sc3scnc32)CCN1C (as salt: hydrochloride)	146 to 148 °C

Reference: US20060270656A1, “Substituted piperazines of azepines, oxazepines and thiazepines” (ELI LILLY AND COMPANY, priority 2003, published 2006)
